Laboratory results from paper PMC2664976 (The Journal of General Physiology, 2009).

Assays:
wtCFTR = wtCFTR (Homo sapiens, UniProt P13569); assay: whole cell patch clamp, HEK […] chloride current; assay type: cell-based
SLC26A9 = molecular target: T1, SLC26A9 (Homo sapiens, UniProt Q7LBE3); assay: whole cell patch clamp, HEK […] chloride current; assay type: cell-based; conditions: read-out: % inhibition at 50 μM
T1 sequence (Q7LBE3 1-791): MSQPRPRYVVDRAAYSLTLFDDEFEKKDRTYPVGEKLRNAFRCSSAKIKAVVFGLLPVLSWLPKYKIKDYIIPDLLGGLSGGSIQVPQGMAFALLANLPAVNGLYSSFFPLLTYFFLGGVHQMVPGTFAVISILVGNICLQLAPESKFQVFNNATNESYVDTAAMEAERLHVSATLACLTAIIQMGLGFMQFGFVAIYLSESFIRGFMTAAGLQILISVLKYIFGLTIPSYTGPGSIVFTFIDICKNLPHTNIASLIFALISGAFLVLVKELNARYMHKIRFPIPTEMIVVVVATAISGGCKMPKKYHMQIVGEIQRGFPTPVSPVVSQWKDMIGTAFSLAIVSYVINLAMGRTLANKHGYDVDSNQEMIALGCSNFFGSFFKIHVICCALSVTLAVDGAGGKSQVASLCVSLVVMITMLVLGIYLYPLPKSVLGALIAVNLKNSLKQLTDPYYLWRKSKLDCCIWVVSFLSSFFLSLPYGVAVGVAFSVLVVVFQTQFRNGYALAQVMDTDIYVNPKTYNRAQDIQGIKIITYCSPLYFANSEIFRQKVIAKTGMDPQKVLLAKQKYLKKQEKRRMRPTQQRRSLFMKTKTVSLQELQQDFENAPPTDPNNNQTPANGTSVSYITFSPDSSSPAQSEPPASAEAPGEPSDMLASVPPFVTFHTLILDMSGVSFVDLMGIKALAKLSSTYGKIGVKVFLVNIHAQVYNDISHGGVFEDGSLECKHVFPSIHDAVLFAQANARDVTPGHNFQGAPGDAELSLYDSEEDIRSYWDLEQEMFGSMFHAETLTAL

Sequence of wtCFTR (P13569 whole entry): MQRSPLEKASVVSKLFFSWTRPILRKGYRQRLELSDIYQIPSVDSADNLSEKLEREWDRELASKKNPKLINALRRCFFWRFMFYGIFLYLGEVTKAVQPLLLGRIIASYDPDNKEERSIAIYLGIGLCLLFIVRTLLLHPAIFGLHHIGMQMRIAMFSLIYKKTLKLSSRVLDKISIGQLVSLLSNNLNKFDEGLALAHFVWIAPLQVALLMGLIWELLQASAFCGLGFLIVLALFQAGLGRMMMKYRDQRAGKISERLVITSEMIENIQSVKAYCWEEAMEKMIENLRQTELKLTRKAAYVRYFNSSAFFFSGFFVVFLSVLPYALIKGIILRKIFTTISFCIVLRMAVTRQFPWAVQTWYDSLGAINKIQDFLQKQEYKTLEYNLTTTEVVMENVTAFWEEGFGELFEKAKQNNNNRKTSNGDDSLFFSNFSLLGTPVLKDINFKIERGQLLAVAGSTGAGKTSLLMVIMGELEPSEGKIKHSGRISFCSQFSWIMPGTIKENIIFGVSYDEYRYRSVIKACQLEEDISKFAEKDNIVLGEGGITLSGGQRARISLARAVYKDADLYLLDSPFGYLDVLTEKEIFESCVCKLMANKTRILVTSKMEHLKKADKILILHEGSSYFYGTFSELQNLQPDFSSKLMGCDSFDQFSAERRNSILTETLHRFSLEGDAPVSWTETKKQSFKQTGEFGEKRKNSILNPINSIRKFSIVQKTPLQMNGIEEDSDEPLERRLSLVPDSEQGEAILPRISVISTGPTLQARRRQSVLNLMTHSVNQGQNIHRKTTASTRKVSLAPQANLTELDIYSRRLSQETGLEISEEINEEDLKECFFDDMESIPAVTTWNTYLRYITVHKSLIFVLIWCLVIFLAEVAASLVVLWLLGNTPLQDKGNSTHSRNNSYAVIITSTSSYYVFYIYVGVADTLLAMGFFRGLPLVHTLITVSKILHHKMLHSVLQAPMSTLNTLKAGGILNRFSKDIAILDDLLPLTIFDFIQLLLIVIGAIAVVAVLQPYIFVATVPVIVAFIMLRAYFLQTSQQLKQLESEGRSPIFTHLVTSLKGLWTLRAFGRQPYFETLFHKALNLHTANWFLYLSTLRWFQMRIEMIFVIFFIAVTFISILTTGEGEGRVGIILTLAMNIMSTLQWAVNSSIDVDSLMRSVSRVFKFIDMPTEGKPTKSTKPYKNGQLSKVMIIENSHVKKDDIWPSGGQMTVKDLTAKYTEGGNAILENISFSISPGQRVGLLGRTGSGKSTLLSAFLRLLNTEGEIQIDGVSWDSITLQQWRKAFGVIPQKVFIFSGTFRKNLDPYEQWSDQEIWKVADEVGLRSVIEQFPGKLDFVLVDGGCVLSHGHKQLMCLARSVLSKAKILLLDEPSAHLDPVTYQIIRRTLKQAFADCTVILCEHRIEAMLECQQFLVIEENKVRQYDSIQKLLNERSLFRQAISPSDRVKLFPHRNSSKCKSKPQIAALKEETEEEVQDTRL

inhibition at 50 µM (wtCFTR; read-out: % inhibition (GlyH-101, 50 μM)) [%] | inhibition at 50 µM (SLC26A9) [%] | inhibition at 100 µM (wtCFTR; read-out: % inhibition (glibenclamide, 100 μM)) [%] | SMILES
90 ± 2 | 71 ± 4 |  | O=C(CNc1ccc2ccccc2c1)NN=Cc1cc(Br)c(O)c(Br)c1O [GlyH-101]
 |  | 52 ± 10 | COc1ccc(Cl)cc1C(=O)NCCc1ccc(S(=O)(=O)NC(=O)NC2CCCCC2)cc1 [glibenclamide]
